Patent US20230097700A1, “AZETIDINE SULFONAMIDE COMPOUND” (DAIICHI SANKYO COMPANY, LIMITED, priority 2019, published 2023)
Structures can show the parent of a compound that is named as a salt.

Each molecule was assayed on activated T cells (CD4+ T cells derived from the mouse spleen) (assay: Incorporation of 3H-thymidine into activated T cells). Settings: 3H-thymidine incorporation, mouse spleen CD4+ T cells activated with Dynabeads Mouse T-Activator CD3/CD28.
Type: cell-based, mouse (C57BL/6J)
Experimental: Effect of a test substance on incorporation of ^3H-thymidine was evaluated using T cells derived from the mouse spleen. The spleen was excised out from a C57BL/6J mouse euthanized, cut into pieces, ground on a cell strainer (40 μm mesh) and centrifuged to collect spleen cells. CD4+ T cells were isolated from the spleen cells by use of EasySep Mouse CD4+ T cell isolation kit (STEMCELL Technologies). CD4+ T cells were seeded to a 96-well round-bottom plate. Test substance dissolved in DMSO (dimethyl sulfoxide) or vehicle (DMSO) was added to culture medium and Dynabeads Mouse T-Activator CD3/CD28 (Thermo Fisher Scientific Inc.) was added. Culture was carried out at 37° C. in 5% CO2. After culture was carried out for 24 hours, ^3H-thymidine (PerkinElmer) diluted with the culture medium was added to individual wells. Culture was further carried out overnight at 37° C. in 5% CO2. In order to measure ^3H-thymidine incorporated in nuclei of the cells, the cells were collected on a filter plate UniFilter-96 GF/B (PerkinElmer) by use of a FilterMate Universal Harvester (PerkinElmer). After the filter plate was placed in a dryer and allowed to stand still for 2 hours or more, scintillation cocktail MicroScint-O (PerkinElmer) was added and radioactivity was measured by TopCount NXT (PerkinElmer). With the radioactivity of a group not containing a test substance being specified as 100% and the radioactivity of a group not activated being specified as 0%, relative radioactivity values of individual wells to which the test substance was added (proliferation rate, % of vehicle) were calculated. The values of “% of vehicle” were entered in analysis software Prism (Version 4.03, GraphPad Software). “Nonlinear regression Log (inhibitor) vs reaction variable tilt” was selected and sigmoid type-fitting (Bottom=0, Top=100) was carried out to calculate 50% inhibition concentration (IC50). The compound of the present invention suppresses ^3H-thymidine incorporation in activated T cells.

Structure (SMILES)	IC50 [µM]
N[C@@H](Cc1cccc(S(=O)(=O)N2CC(Oc3ccc(-c4ccccc4)cc3)(c3ccccc3)C2)c1)C(=O)O [Example 2, (2S)-2-Amino-3-(3-{3-[([1,1′-biphenyl]-4-yl)oxy]-3-phenylazetidin-1-sulfonyl}phenyl)propanoic acid]	0.012
CC(=O)c1cc(OC2(c3ccc(F)cc3)CN(S(=O)(=O)c3cccc(C[C@H](N)C(=O)O)c3)C2)ccc1F [Example 5, (2S)-3-{3-[3-(3-Acetyl-4-fluorophenoxy)-3-(4-fluorophenyl)azetidine-1-sulfonyl]phenyl}-2-aminopropanoic acid monohydrochloride]	0.03
N[C@@H](Cc1cccc(S(=O)(=O)N2CC(Oc3ccc4c(c3)OCCO4)(c3ccccc3)C2)c1)C(=O)O [Example 7, (2S)-2-Amino-3-(3-{3-[(2,3-dihydro-1,4-benzodioxin-6-yl)oxy]-3-phenylazetidin-1-sulfonyl}phenyl)propanoic acid monohydrochloride]	0.016
N[C@@H](Cc1cccc(S(=O)(=O)N2CC(Oc3ccc4c(c3)CCNC4=O)(c3ccc(F)cc3)C2)c1)C(=O)O [Example 8, (2S)-2-Amino-3-(3-{3-(4-fluorophenyl)-3-[(1-oxo-1,2,3,4-tetrahydroisoquinolin-6-yl)oxy]azetidin-1-sulfonyl}phenyl)propanoic acid monohydrochloride]	0.013
CC(C)NC(=O)c1ccc(OC2(c3ccccc3)CN(S(=O)(=O)c3cccc(C[C@H](N)C(=O)O)c3)C2)cc1 [Example 11, (2S)-2-Amino-3-[3-(3-phenyl-3-{4-[(propan-2-yl)carbamoyl]phenoxy}azetidin-1-sulfonyl)phenyl]propanoic acid monoformate]	0.026
N[C@@H](Cc1cccc(S(=O)(=O)N2CC(Oc3ccc(OC(F)F)cc3)(c3ccccc3)C2)c1)C(=O)O [Example 12, (2S)-2-Amino-3-(3-{3-[4-(difluoromethoxy)phenoxy]-3-phenylazetidin-1-sulfonyl}phenyl)propanoic acid monoformate]	0.021
Cc1ccc(C2(Oc3ccc(C#N)cc3)CN(S(=O)(=O)c3cccc(C[C@H](N)C(=O)O)c3)C2)cc1 [Example 13, (2S)-2-Amino-3-{3-[3-(4-cyanophenoxy)-3-(4-methylphenyl)azetidine-1-sulfonyl]phenyl}propanoic acid monoformate]	0.0091
CC(=O)c1ccc(OC2(c3ccc(C)cc3)CN(S(=O)(=O)c3cccc(C[C@H](N)C(=O)O)c3)C2)cc1 [Example 14, (2S)-3-{3-[3-(4-Acetylphenoxy)-3-(4-methylphenyl)azetidine-1-sulfonyl]phenyl}-2-aminopropanoic acid monoformate]	0.0077
N[C@@H](Cc1cccc(S(=O)(=O)N2CC(Oc3cccc(F)c3)(c3ccc(F)cc3)C2)c1)C(=O)O [Example 15, (2S)-Amino-3-(3-{[3-(3-fluorophenoxy)-3-(4-fluorophenyl)azetidin-1-yl]sulfonyl}phenyl)propanoic acid]	0.014
Cc1ccc(OC2(c3ccccc3)CN(S(=O)(=O)c3cccc(C[C@H](N)C(=O)O)c3)C2)cc1 [Example 16, (2S)-Amino-3-(3-{[3-phenyl-3-(p-tolyloxy)azetidin-1-yl]sulfonyl)phenyl)propanoic acid]	0.01
N[C@@H](Cc1cccc(S(=O)(=O)N2CC(Oc3ccc(F)c(Cl)c3)(c3ccccc3)C2)c1)C(=O)O [Example 17, (2S)-Amino-3-(3-{[3-(3-chloro-4-fluorophenoxy)-3-phenylazetidin-1-yl]sulfonyl}phenyl)propanoic acid]	0.023
N#Cc1ccc(OC2(c3ccccc3)CN(S(=O)(=O)c3cccc(C[C@H](N)C(=O)O)c3)C2)cc1 [Example 18, (2S)-Amino-3-(3-{[3-(4-cyanophenoxy)-3-phenylazetidin-1-yl]sulfonyl}phenyl)propanoic acid]	0.014
NC(=O)c1ccc(OC2(c3ccccc3)CN(S(=O)(=O)c3cccc(C[C@H](N)C(=O)O)c3)C2)cc1 [Example 20, (2S)-2-Amino-3-{3-[3-(4-carbamoylphenoxy)-3-phenylazetidine-1-sulfonyl]phenyl}propanoic acid monoformate]	0.0088
NC(=O)c1ccc(OC2(c3ccc(F)cc3)CN(S(=O)(=O)c3cccc(C[C@H](N)C(=O)O)c3)C2)cc1 [Example 22, (2S)-2-Amino-3-{3-[3-(4-carbamoylphenoxy)-3-(4-fluorophenyl)azetidine-1-sulfonyl]phenyl}propanoic acid monotrifluoroacetate]	0.0048
[2H]c1c([2H])c([2H])c(OC2(c3ccccc3)CN(S(=O)(=O)c3cccc(C[C@H](N)C(=O)O)c3)C2)c([2H])c1[2H] [Example 24, (2S)-2-Amino-3-(3-{3-phenyl-3-[(^2H5)phenyloxy]azetidin-1-sulfonyl}phenyl)propanoic acid]	0.012
C[C@H](OC(=O)[C@@H](N)Cc1cccc(S(=O)(=O)N2CC(Oc3cccc(F)c3)(c3ccccc3)C2)c1)C(=O)N(C)C [Example 31, (2S)-1-(Dimethylamino)-1-oxopropan-2-yl (2S)-2-amino-3-{3-[3-(3-fluorophenoxy)-3-phenylazetidin-1-sulfonyl]phenyl}propanoate monotrifluoroacetate]	0.021
C[C@@H](OC(=O)[C@@H](N)Cc1cccc(S(=O)(=O)N2CC(Oc3cccc(F)c3)(c3ccccc3)C2)c1)C(=O)N(C)C [Example 32, (2R)-1-(Dimethylamino)-1-oxopropan-2-yl (2S)-2-amino-3-{3-[3-(3-fluorophenoxy)-3-phenylazetidin-1-sulfonyl]phenyl}propanoate monotrifluoroacetate]	0.018
N[C@@H](Cc1cccc(S(=O)(=O)N2CC(Oc3ccc(Cl)cc3)(c3ccc(F)cc3)C2)c1)C(=O)O [Example 35, (2S)-2-Amino-3-{3-[3-(4-chlorophenoxy)-3-(4-fluorophenyl)azetidine-1-sulfonyl]phenyl}propanoic acid monohydrochloride]	0.024

Further molecules by falling IC50, results first:

IC50 [µM]	Structure (SMILES)
0.035	N[C@@H](Cc1cccc(S(=O)(=O)N2CC(Oc3cccc(-c4ccccc4)c3)(c3ccccc3)C2)c1)C(=O)O [Example 3, (2S)-2-Amino-3-(3-{3-[([1,1′-biphenyl]-3-yl)oxy]-3-phenylazetidin-1-sulfonyl)phenyl)propanoic acid]
0.03	CCC(=O)c1ccc(OC2(c3ccc(F)cc3)CN(S(=O)(=O)c3cccc(C[C@H](N)C(=O)O)c3)C2)cc1 [Example 19, (2S)-2-Amino-3-{3-[3-(4-fluorophenyl)-3-(4-propanoylphenoxy)azetidin-1-yl]sulfonylphenyl}propanoic acid monotrifluoroacetate]
0.019	N[C@@H](Cc1cccc(S(=O)(=O)N2CC(Oc3ccc(Cl)cc3)(c3ccc(F)c(F)c3)C2)c1)C(=O)O [Example 36, (2S)-2-Amino-3-{3-[3-(4-chlorophenoxy)-3-(3,4-difluorophenyl)azetidin-1-sulfonyl]phenyl}propanoic acid monohydrochloride]
0.012	CC(=O)c1ccc(OC2(c3ccc(F)cc3)CN(S(=O)(=O)c3cccc(C[C@H](N)C(=O)O)c3)C2)cc1F [Example 4, (2S)-3-{3-[3-(4-Acetyl-3-fluorophenoxy)-3-(4-fluorophenyl)azetidine-1-sulfonyl]phenyl}-2-aminopropanoic acid monohydrochloride]
0.01	N[C@@H](Cc1cccc(S(=O)(=O)N2CC(Oc3ccc4cn[nH]c4c3)(c3ccccc3)C2)c1)C(=O)O [Example 10, (2S)-2-Amino-3-(3-{3-[(1H-indazol-6-yl)oxy]-3-phenylazetidine-1-sulfonyl}phenyl)propanoic acid monohydrochloride]
0.0076	CC(=O)c1ccc(OC2(c3ccc(Cl)cc3)CN(S(=O)(=O)c3cccc(C[C@H](N)C(=O)O)c3)C2)cc1 [Example 9, (2S)-3-{3-[3-(4-Acetylphenoxy)-3-(4-chlorophenyl)azetidin-1yl]sulfonylphenyl}-2-aminopropanoic acid monohydrochloride]
0.0066	N[C@@H](Cc1cccc(S(=O)(=O)N2CC(Oc3ccc4nccnc4c3)(c3ccccc3)C2)c1)C(=O)O [Example 6, (2S)-2-Amino-3-(3-{3-phenyl-3-[(quinoxalin-6-yl)oxy]azetidin-1-sulfonyl}phenyl)propanoic acid monohydrochloride]
0.0037	CN(C)c1ccc(OC2(c3ccc(F)cc3)CN(S(=O)(=O)c3cccc(C[C@H](N)C(=O)O)c3)C2)cc1 [Example 21, (2S)-2-Amino-3-{3-[4-(dimethylamino)phenoxy]-3-(4-fluorophenyl)azetidin-1-yl]sulfonylphenyl}propanoic acid monohydrochloride]
0.0033	N#Cc1ccc(OC2(c3ccc(F)cc3)CN(S(=O)(=O)c3cccc(C[C@H](N)C(=O)O)c3)C2)cc1 [Example 34, (2S)-2-Amino-3-{3-[3-(4-cyanophenoxy)-3-(4-fluorophenyl)azetidine-1-sulfonyl]phenyl}propanoic acid monohydrochloride]
